{
  "source": "patent US5985541A",
  "about": "“Peptide capable of being recognized by antibodies recognizing the C33 antigen of hepatitis C virus” (Bio Merieux, priority 1995, dated 1999)",
  "note": "Where no end group is shown, it is not given here.",
  "data": [
    {"test_system": "anti-C33 70-13 or 12A1H2 monoclonal antibodies", "assay": "Spotscan immunoreactivity of overlapping octapeptides with anti-C33 monoclonal antibodies", "format": "binding", "conditions": "monoclonal antibodies 100 nM; β-galactosidase anti-mouse conjugate 1/200; estimated qualitatively", "method": "The synthesis was conducted on an activated cellulose membrane according to the technique developed by Berg et al. (1989, J. Ann. Chem. Soc., 111, 8024-8026) and available from Cambridge Research Biochemicals (trade name Spotscan). This technique allows simultaneous synthesis of a large number of peptides. The escerified amino acids used in the synthesis have an α-amino group protected by an FMOC group (Nova Biochem) and side groups protected by protective groups such as, for example, trityl, t-butyl ester, or t-butyl ether. The esterified amino acids are dissolved in N-methylpyrrolidone (NMP) at the concentration of […] and 0.9 μl are deposited at the attachment sites of bromphenol blue. After 15 minutes incubation, amino acids are deposited once again, followed by a further incubation of 15 minutes. If the coupling between the two amino acids is done correctly, a color change is observed (transition from blue to yellow-green). After three washings in DMF, an acetylation step is performed by acetic anhydride. Then the terminal amino groups of the peptides undergoing synthesis are deprotected by piperidine in a 20% solution in DMF. The deposition sites are re-stained by a 1% bromophenol blue solution in DMF, washed three times with methanol, and dried. This sequence of operations constitutes one amino acid addition cycle, and this cycle is repeated until synthesis is complete. When all the amino acids have been added, the NH2 terminal group of the last amino acid is deprotected by piperidine in a 20% solution in DMF and acetylated with acetic anhydride. The protective groups of the side chain are removed by a mixture of dichloromethane/trifluoroacetic acid/triisobutylsilane (5 ml/5 ml/250 μl). The immunoreactivity of the peptides thus synthesized can then be tested, for example, by ELISA.\nAfter synthesis of the various octapeptides, the cellulose membrane is rinsed with methanol, washed in TBS (0.1 M Tris, pH 7.2) then incubated overnight at room temperature in saturation buffer (available from Cambridge Research Biochemicals). After several washings with TBS-T (0.1 M Tris, pH 7.2-0.05% Tween 20), the membrane is placed in contact with a solution of anti-C33 70-13 or 12A1H2 monoclonal antibodies (100 nM), and incubated for four hours at room temperature. After three washings with TBS-T, the anti-mouse-immunoglobulin conjugate labeled with β-galactosidase (available from Cambridge Research Biochemicals) is added to a 1/200 dilution and these materials are incubated for two hours at room temperature. After several washings of the membrane with 0.05% TBS-Tween and PBS, the immunoreactivity at the various spots is developed by adding a solution of substrate (5-bromo-4-chloro-3-indoyl-β-D-galactopyranoside in PBS containing magnesium chloride and potassium ferricyanide) and incubating for ten to forty minutes. The color of the spots is estimated qualitatively on a numerical scale from 0 to 5.", "values": [
      {"sequence": "KFSSRLGA", "color of the spots (immunoreactivity)": "maximum"},
      {"sequence": "FSSRLGAA", "color of the spots (immunoreactivity)": "maximum"},
      {"sequence": "DGAKFSSR", "color of the spots (immunoreactivity)": "first color"},
      {"sequence": "RLGAAGAE", "color of the spots (immunoreactivity)": "disappears completely"},
      {"sequence": "SRLGAAGA", "color of the spots (immunoreactivity)": "very slight coloration"}
    ]},
    {"test_system": "mixture of human sera from patients infected by HCV (anti-C33 antibodies)", "assay": "Spotscan immunoreactivity of overlapping octapeptides with mixture of human sera", "format": "binding", "conditions": "1/50 dilution of human sera mixture; anti-human-immunoglobulin conjugate 1/200", "values": [
      {"sequence": "FSSRLGAA", "color of the spots (immunoreactivity)": "maximum color"}
    ]},
    {"test_system": "anti-C33 antibodies", "assay": "Spotscan point substitution tests on the Lys-Phe-Ser-Ser-Arg-Leu-Gly-Ala peptide", "format": "binding", "conditions": "point or double substitution of amino acids", "method": "In order to determine the degree to which the nature of the various amino acids constituting the Lys-Phe-Ser-Ser-Arg-Leu-Gly-Ala peptide can vary without reducing the antigenic properties of said peptide with respect to anti-C33 antibodies, point substitution tests were performed.\nThe peptides were synthesized by the method described in the previous example, known as \"Spotscan\", substituting each amino acid on the peptide at a given position by the other nineteen. These peptides were then tested as described above. The size of each residue can thus be examined and the peptide grouping the best amino acids in each position can then be synthesized.", "values": [
      {"sequence": "KFSSGLGA [SEQ ID NO: 32]", "response compared with the Lys-Phe-Ser-Ser-Arg-Leu-Gly-Ala peptide": "better response"},
      {"sequence": "KFSSPLGA [SEQ ID NO: 33]", "response compared with the Lys-Phe-Ser-Ser-Arg-Leu-Gly-Ala peptide": "better response"},
      {"sequence": "KASSYLGA [SEQ ID NO: 36]", "response compared with the Lys-Phe-Ser-Ser-Arg-Leu-Gly-Ala peptide": "advantageously"},
      {"sequence": "KYSSRLGA [SEQ ID NO: 35]", "response compared with the Lys-Phe-Ser-Ser-Arg-Leu-Gly-Ala peptide": "equivalent response"},
      {"sequence": "KFSSYLGA [SEQ ID NO: 34]", "response compared with the Lys-Phe-Ser-Ser-Arg-Leu-Gly-Ala peptide": "better response"},
      {"sequence": "KHSSYLGA [SEQ ID NO: 37]", "response compared with the Lys-Phe-Ser-Ser-Arg-Leu-Gly-Ala peptide": "advantageously"}
    ]}
  ]
}
